According to patent US10017475B2, “Anti-vasculature and anti-tubulin combretastatin analogs for treatment of cancer” (XAVIER UNIVERSITY OF LOUISIANA, priority 2014, dated 2018):
Where two headings read alike, the source gives them in different places.

Assays:
HeLa = assay: Antiproliferative assay (resazurin, 72 h); assay type: cell-based, human; settings: 72 h incubation, read-out: Growth Inhibition IC50 HeLa
Procedure: (§1) Cells were seeded in 96-well plates (5×10^3 cells/well) containing 50 μL growth medium for 24 hours. After medium removal, 100 μL fresh medium containing individual analog compound at different concentrations was added to each well and incubated at 37° C. for 72 h. […] After 72 h of incubation, 20 μL of resazurin was added for 2 h before recording fluorescence at 560 nm (excitation) and 590 nm (emission) using a Victor microtiter plate fluorimeter (Perkin-Elmer, USA).

MDA-MB-231 = assay: Antiproliferative assay (resazurin, 72 h); assay type: cell-based, human; settings: MDA-MB-231, 72 h incubation, read-out: Growth Inhibition IC50 MDA-MB-231
Procedure: as §1

A549 = assay: Antiproliferative assay (resazurin, 72 h); assay type: cell-based, human; settings: A549, 72 h incubation, read-out: Growth Inhibition IC50 A549
Procedure: as §1

Structure (SMILES)	melting point	IC50 (HeLa; Homo sapiens, 72 h) [µM]	IC50 (MDA-MB-231; Homo sapiens, MDA-MB-231, 72 h) [µM]	IC50 (A549; Homo sapiens, A549, 72 h) [µM]	IC50 (HeLa; Homo sapiens) [µM]	IC50 (MDA-MB-231; Homo sapiens) [µM]	IC50 (A549; Homo sapiens) [µM]	IC50 (HeLa) [µM]	IC50 (MDA-MB-231) [µM]	IC50 (A549) [µM]
COc1cc(-c2cccc(Br)n2)cc(OC)c1OC [Compound 2a, 2-Bromo-6-(3,4,5-trimethoxyphenyl)pyridine]	100 to 102 °C	12	6	9						
COc1ccc(-c2cccc(Br)n2)cc1OC [Compound 2b, 2-Bromo-6-(3,4-dimethoxyphenyl)pyridine]		> 50	> 25	> 25						
COc1ccc(-c2cccc(Br)n2)c(OC)c1 [Compound 2c, 2-Bromo-6-(2,4-dimethoxyphenyl)pyridine]		> 50	> 100	> 50						
COc1ccc(-c2cccc(Br)n2)cc1 [Compound 2d, 2-Bromo-6-(4-methoxyphenyl)pyridine]	99 to 100 °C	2	10	2						
COc1cc(-c2ccc(Br)cn2)cc(OC)c1OC [Compound 2e, 5-Bromo-2-(3,4,5-trimethoxyphenyl)pyridine]	49 to 50 °C	14	12	> 25						
COc1ccc(-c2ccc(Br)cn2)c(OC)c1 [Compound 2f, 5-Bromo-2-(2,4-dimethoxyphenyl)pyridine]		> 25	> 100	> 100						
COc1cc(-c2cccc(-c3cc(OC)c(OC)c(OC)c3)n2)cc(OC)c1OC [Compound 3a, 2,6-Bis(3,4,5-trimethoxyphenyl)pyridine]		1	11	> 50						
COc1ccc(-c2cccc(-c3ccc(OC)c(OC)c3)n2)cc1OC [Compound 3b, 2,6-Bis(3,4-dimethoxyphenyl)pyridine]	140 to 141 °C	> 25	> 50	> 50						
COc1ccc(-c2cccc(-c3ccc(OC)cc3OC)n2)c(OC)c1 [Compound 3c, 2,6-Bis(2,4-dimethoxyphenyl)pyridine]	113 to 114 °C	0.011	0.075	0.079						
COc1ccc(-c2cccc(-c3ccc(OC)cc3)n2)cc1 [Compound 3d, 2,6-Bis(4-methoxyphenyl)pyridine]	156 to 158 °C	2	9	> 100						
COc1cc(-c2ccc(-c3cc(OC)c(OC)c(OC)c3)nc2)cc(OC)c1OC [Compound 3e, 2,5-Bis(3,4,5-trimethoxyphenyl)pyridine]		2.68	11	> 100						
COc1cc(-c2ccnc(-c3cc(OC)c(OC)c(OC)c3)c2)cc(OC)c1OC [Compound 3f, 2,4-Bis(3,4,5-trimethoxyphenyl)pyridine]					0.79	2.63	7.86			
COc1ccc(-c2ccc(-c3ccc(OC)cc3OC)nc2)c(OC)c1 [Compound 3g, 2,5-Bis(2,4-dimethoxyphenyl)pyridine]	124 to 125 °C	> 50	> 100	> 100						
COc1ccc(-c2ccnc(-c3ccc(OC)cc3OC)c2)c(OC)c1 [Compound 3h, 2,4-Bis(2,4-dimethoxyphenyl)pyridine]	95 to 97 °C	> 25	> 50	> 50						
COc1cc(-c2cccc(-c3ccc(O)cc3)n2)cc(OC)c1OC [Compound 4a, 4-(6-(3,4,5-Trimethoxyphenyl)pyridin-2-yl)phenol]	92 to 94 °C (dec.)	8	10	> 25						
COc1ccc(-c2cccc(-c3ccc(O)cc3)n2)cc1OC [Compound 4b, 4-(6-(3,4-Dimethoxyphenyl)pyridin-2-yl)phenol]	70 to 72 °C (dec.)	0.86	> 50	> 100						
COc1ccc(-c2cccc(-c3cc(OC)c(OC)c(OC)c3)n2)cc1OC [Compound 4c, 2-(3,4-Dimethoxyphenyl)-6-(3,4,5-trimethoxyphenyl)pyridine]	107 to 108 °C	0.026	2.49	> 50						
COc1ccc(-c2cccc(-c3ccc(OC)c(OC)c3)n2)cc1 [Compound 4d, 2-(3,4-Dimethoxyphenyl)-6-(4-methoxyphenyl)pyridine]		> 25	> 25	> 25						
COc1ccc(-c2cccc(-c3ccc(OC)c(OC)c3)n2)c(OC)c1 [Compound 4e, 2-(2,4-Dimethoxyphenyl)-6-(3,4-dimethoxyphenyl)pyridine]	100 to 101 °C	> 50	13	> 25						
COc1ccc(-c2cccc(-c3cc(OC)c(OC)c(OC)c3)n2)cc1 [Compound 4f, 2-(4-Methoxyphenyl)-6-(3,4,5-trimethoxyphenyl)pyridine]	112 to 114 °C	> 50	> 25	> 50						
COc1ccc(-c2cccc(-c3cc(OC)c(OC)c(OC)c3)n2)c(OC)c1 [Compound 4g, 2-(2,4-Dimethoxyphenyl)-6-(3,4,5-trimethoxyphenyl)pyridine]	115 to 117 °C	4.43	> 100	0.69						
COc1ccc(-c2ccc(-c3cc(OC)c(OC)c(OC)c3)nc2)cc1OC [Compound 4i, 5-(3,4-Dimethoxyphenyl)-2-(3,4,5-trimethoxyphenyl)pyridine]	131 to 132 °C	> 25	> 50	> 50						
COc1ccc(-c2cccc(-c3ccc(O)cc3)n2)cc1 [Compound 4j, 4-(6-(4-Methoxyphenyl)pyridine-2-yl)phenol]	133 to 134 °C	> 50	> 25	> 25						
COc1ccc(-c2cccc(-c3ccc(O)cc3)n2)c(OC)c1 [Compound 4k, 4-(6-(2,4-Dimethoxyphenyl)pyridine-2-yl)phenol]	112 to 114 °C (dec.)	> 100	17.2	4.22						
COc1cc(OC)cc(-c2cccc(-c3ccc(OC)cc3OC)n2)c1 [Compound 4l, 2-(2,4-Dimethoxyphenyl)-6-(3,5-dimethoxyphenyl)pyridine]		> 50	> 25	> 25						
COc1ccc(-c2cccc(-c3cc(OC)ccc3OC)n2)c(OC)c1 [Compound 4m, 2-(2,4-Dimethoxyphenyl)-6-(2,5-dimethoxyphenyl)pyridine]		0.034	0.034	0.33						
COc1ccc(-c2cccc(-c3cccc(OC)c3OC)n2)c(OC)c1 [Compound 4n, 2-(2,3-Dimethoxyphenyl)-6-(2,4-dimethoxyphenyl)pyridine]	79 to 80 °C	> 52	> 50	> 51						
COc1cccc(-c2cccc(-c3ccc(OC)cc3OC)n2)c1 [Compound 4p, 2-(2,4-Dimethoxyphenyl)-6-(3-methoxyphenyl)pyridine]		0.067	9.02	0.56						
COc1ccc(-c2cccc(-c3ccccc3OC)n2)c(OC)c1 [Compound 4r, 2-(2,4-Dimethoxyphenyl)-6-(2-methoxyphenyl)pyridine]		> 25	> 25	> 50						
COc1ccc(-c2cccc(-c3ccc(OC)c(O)c3)n2)c(OC)c1 [Compound 5, 2-(2,4-Dimethoxyphenyl)-6-(3-hydroxy-4-methoxyphenyl) pyridin-1-ium chloride]								0.0026	0.0054	0.042
